molecular target: T1, Glucocorticoid Receptor (GR) (Homo sapiens, UniProt P04150); assay: GR Florescence Polarization Assay (PolarScreen Glucocorticoid Receptor Competitor Assay, Red); conditions: Fluorescense polarization binding ranges; competition with fluorescent glucocorticoid, incubated overnight at 4° C.
T1 construct: purchased Invitrogen P2893
T1 sequence (P04150 1-777): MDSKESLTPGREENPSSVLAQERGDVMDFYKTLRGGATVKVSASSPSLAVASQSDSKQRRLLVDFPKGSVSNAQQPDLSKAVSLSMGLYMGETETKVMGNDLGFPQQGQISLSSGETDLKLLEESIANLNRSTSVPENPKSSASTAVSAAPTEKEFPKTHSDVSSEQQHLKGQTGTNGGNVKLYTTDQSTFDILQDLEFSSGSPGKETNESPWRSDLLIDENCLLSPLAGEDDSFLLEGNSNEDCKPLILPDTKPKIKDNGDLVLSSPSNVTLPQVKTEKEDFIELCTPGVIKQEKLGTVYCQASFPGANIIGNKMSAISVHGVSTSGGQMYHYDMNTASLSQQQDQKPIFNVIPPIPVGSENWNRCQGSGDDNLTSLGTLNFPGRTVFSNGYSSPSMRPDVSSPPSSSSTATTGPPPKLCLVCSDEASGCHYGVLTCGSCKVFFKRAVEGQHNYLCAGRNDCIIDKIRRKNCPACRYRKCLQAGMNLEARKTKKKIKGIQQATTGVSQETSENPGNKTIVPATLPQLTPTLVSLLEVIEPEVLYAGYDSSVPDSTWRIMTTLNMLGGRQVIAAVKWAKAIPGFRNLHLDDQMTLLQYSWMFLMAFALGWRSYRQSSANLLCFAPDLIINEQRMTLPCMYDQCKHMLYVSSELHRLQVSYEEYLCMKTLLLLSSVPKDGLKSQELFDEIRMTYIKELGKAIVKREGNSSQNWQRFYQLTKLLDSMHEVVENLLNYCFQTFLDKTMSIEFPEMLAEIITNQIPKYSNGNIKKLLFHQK
Procedure: GR Florescence Polarization Assay Florescence polarization assays were carried out using the PolarScreen™ Glucocorticoid Receptor Competitor Assay, Red from Invitrogen (P2893). The assay buffer was prepared according to the manufacturer's protocol and used to dilute the fluorescent glucocorticoid and GR. Compounds were prepared and serial diluted 1:4 in DMSO. Compound, fluorescent glucocorticoid and GR were added in a final volume of 20 μL and incubated overnight at 4° C. Fluorescent polarization was measured on the Perkinelmer Envision®.

Compound | IC50 [µM]
O=C1CCCC[C@H]2CC3(CC[C@@]12Cc1ccccc1)OCCO3 (racemic) [Example 37, (4aS,9aS)-4a-benzyloctahydrospiro[benzo[7]annulene-2,2′-[1,3]dioxolan]-5(1H)-one; compound with (4aR,9aR)-4a-benzyloctahydrospiro[benzo[7]annulene-2,2′-[1,3]dioxolan]-5(1H)-one] | > 10
Oc1ccc2c(c1)CCC[C@H]1C[C@@](O)(c3ccccc3)[C@H](O)C[C@@]21Cc1ccccc1 (racemic) [Example 42, (2R,3R,4aS,11bR)-11b-Benzyl-3-phenyl-2,3,4,4a,5,6,7,11b-octahydro-1H-dibenzo[a,c]cycloheptene-2,3,9-triol compound with (2S,3S,4aR,11bS)-11b-benzyl-3-phenyl-2,3,4,4a,5,6,7,11b-octahydro-1H-dibenzo[a,c]cycloheptene-2,3,9-triol] | 0.1 to 1
Cc1ncccc1NC(=O)c1ccc2c(c1)CCC[C@H]1C[C@@](O)(CC(C)C)CC[C@@]21CC(F)(F)F (racemic) [Example 63, (7aS,9S,11aS)-9-Hydroxy-9-isobutyl-11a-(2,2,2-trifluoro-ethyl)-6,7,7a,8,9,10,11,11a-octahydro-5H-dibenzo[a,c]cycloheptene-3-carboxylic acid (2-methyl-pyridin-3-yl)-amide; compound with (7aR,9R,11aR)-9-hydroxy-9-isobutyl-11a-(2,2,2-trifluoro-ethyl)-6,7,7a,8,9,10,11,11a-octahydro-5H-dibenzo[a,c]cycloheptene-3-carboxylic acid (2-methyl-pyridin-3-yl)-amide] | < 0.1
CC[C@@]12CC[C@](O)(CC#N)C[C@@H]1CCCc1cc(C(=O)Nc3cccnc3C)ccc12 (racemic) [Example 64, (7aS,9R,11aR)-9-Cyanomethyl-11a-ethyl-9-hydroxy-6,7,7a,8,9,10,11,11a-octahydro-5H-dibenzo[a,c]cycloheptene-3-carboxylic acid (2-methyl-pyridin-3-yl)-amide; compound with (7aR,9S,11aS)-9-cyanomethyl-11a-ethyl-9-hydroxy-6,7,7a,8,9,10,11,11a-octahydro-5H-dibenzo[a,c]cyclo heptene-3-carboxylic acid (2-methyl-pyridin-3-yl)-amide] | 0.1 to 1
CC[C@@]12CC[C@](O)(COCC(F)(F)F)C[C@@H]1CCCc1cc(C(=O)Nc3cccnc3C)ccc12 (racemic) [Example 92, (7aS,9R,11aR)-11a-ethyl-9-hydroxy-9-(2,2,2-trifluoro-ethoxymethyl)-6,7,7a,8,9,10,11,11a-octahydro-5H-dibenzo[a,c]cycloheptene-3-carboxylic acid (2-methyl-pyridin-3-yl)-amide: compound with (7aR,9S,11aS)-11a-ethyl-9-hydroxy-9-(2,2,2-trifluoro-ethoxymethyl)-6,7,7a,8,9,10,11,11a-octahydro-5H-dibenzo[a,c]cycloheptene-3-carboxylic acid (2-methyl-pyridin-3-yl)-amide] | < 0.1
Cc1ncccc1NC(=O)c1ccc2c(c1)CCC[C@H]1C[C@@](O)(COCC(F)(F)F)CC[C@@]21Cc1ccccc1 (racemic) [Example 95] | < 0.1

Further lines, results first:

IC50 [µM] | Compound
< 0.1 | CCOC[C@@]1(O)CC[C@@]2(Cc3ccccc3)c3ccc(C(=O)Nc4cccnc4C)cc3CCC[C@H]2C1 (racemic) [Example 33, (7aS,9R,11aS)-11a-Benzyl-9-ethoxymethyl-9-hydroxy-6,7,7a,8,9,10,11,11a-octahydro-5H-dibenzo[a,c]cycloheptene-3-carboxylic acid (2-methyl-pyridin-3-yl)-amide; compound with (7aR,9S,11aR)-11a-benzyl-9-ethoxymethyl-9-hydroxy-6,7,7a,8,9,10,11,11a-octahydro-5H-dibenzo[a,c]cycloheptene-3-carboxylic acid (2-methyl-pyridin-3-yl)-amide]
< 0.1 | CCC[C@@]1(O)CC[C@@]2(CC(F)(F)F)c3ccc(C(=O)Nc4cccnc4C)cc3CCC[C@H]2C1 (racemic) [Example 52]
< 0.1 | Cc1ncccc1NC(=O)c1ccc2c(c1)CCC[C@H]1C[C@@](O)(CC#N)CC[C@@]21Cc1ccccc1 (racemic) [Example 65]
